# Data reported in US9561228B2 (Celgene Avilomics Research, Inc., priority 2013, dated 2017).
# How the values were obtained:
# [1] = target: T1, MEK1 activated ERK1 (Homo sapiens, UniProt P27361); assay: Omnia continuous-read kinase assay for potency against MEK1 activated ERK1; type: biochemical; settings: MEK1 activated ERK1, ATP at KM; read-out: ERK1 Omnia WT ATP KM IC50
# T1 construct: purchased Millipore (Billerica, Mass.) 14-439-K
# Excerpt: Omnia Assay Protocol for Potency Assessment Against MEK1 Activated ERK1:
# The protocol below describes continuous-read kinase assays to measure potency of compounds against activated ERK1 enzyme. The mechanics of the assay platform are best described by the vendor (Invitrogen, Carlsbad, Calif.) on their website at the following URL: invitrogen.com/site/us/en/home.html.
# Briefly, a 1.25× stock of ERK1 enzyme (14-439-K) from Millipore (Billerica, Mass.), 5×ATP (AS001A) and ST17-Sox conjugated peptide substrate (KNZ1171C) were prepared in 1× kinase reaction buffer consisting of 20 mM Tris, pH 7.5, 5 mM MgCl2, 1 mM EGTA, 5 mM β-glycerophosphate, 5% glycerol (10× stock, KB002A) and 0.2 mM DTT. 10 μL of ATP/ST17-sox peptide substrate mix was combined with 0.5 μL volume of 100% DMSO and serially diluted compounds were prepared in 100% DMSO in a Corning (#3574) 384-well, white, non-binding surface microtiter plate (Corning, N.Y.). Kinase reactions were started with the addition of 40 μL of ERK1 solution and monitored every 71 seconds for 30-240 minutes at λex360/λem485 in a Synergy plate reader from BioTek (Winooski, Vt.). At the conclusion of each assay, progress curves from each well were examined for linear reaction kinetics and fit statistics (R^2, 95% confidence interval, absolute sum of squares). Initial velocity (0 minutes to ˜30+ minutes) from each reaction was determined from the slope of a plot of relative fluorescence units vs time (minutes or seconds) and then plotted against inhibitor concentration to estimate ^AppIC50 from log [Inhibitor] vs Response, Variable Slope model in GraphPad Prism from GraphPad Software (San Diego, Calif.).
# [Reagent] used in optimized protocol:
# [ERK1]=4 nM, [ATP]=50 μM, [ST17-Sox]=10 μM (ATP ^appKM 48 μM)
# The results of this assay show the degree of inhibition of ERK activity, which is a direct measurement of inhibition of ERK activity. Results from this assay are reported in Table A under the column “ERK1 Omnia WT ATP KM IC50 (nM).”
# [2] = system: ERK1/2 phosphorylation of p90RSK in HT29 cells; assay: pRSK MSD Assay in HT29 cells; type: cell-based; settings: Homo sapiens, HT-29, read-out: ERK1/ERK2 PRSK MSD HT29 EC50
# Procedure: The protocol below describes an assay to measure the kinase activity of ERK1/2 to phosphorylate a substrate, p90RSK, in the presence or absence of a test compound. This experiment was conducted using a Mesoscale Discovery plate. The day before the assay, HT29 cells were split and plated at 50,000 cells/well in complete growth media. After allowing cells to adhere, the media was removed and replaced with media containing 0.1% FBS and incubated overnight. Blank MSD plates (Mesoscale Discovery, Cat # L15XA3) were coated with 25 μl/well RSK capture antibody (BD Biosciences, Cat. #610226) and incubated at 4° C. overnight, then blocked with 150 μl of 3% BSA solution. The next day, the media from the cell culture plate was removed and replaced with 100 μl of media containing a test compound and incubated for 120 minutes at 37° C. The media was removed and replaced with 55 μl per well of lysis buffer with protease inhibitors (Roche Biosciences, Cat. #11836170001) and phosphatase inhibitors (Sigma-Aldrich, Cat. # P-0044 and P-5726), followed by incubation at 4° C. for 30 minutes. 50 μl of lysate was transferred to a blocked MSD plate, followed by incubation at room temperature for 2 hours under constant shaking. The plate was washed 3 times with MSD wash buffer (Mesoscale Discovery, Cat. # R617TX), and 25 μl/well phospho-RSK (pRSK) detection antibody (Cell Signaling Technology, Cat. #9335) was added with Sulfo-tagged detection antibody (Mesoscale Discovery, Cat. # R32AB-1) diluted in 1% BSA in MSD wash buffer. This mixture was incubated for 1 hour at room temperature under constant shaking. The plate was washed 3 times, and 150 μl 1×MSD read buffer was added, followed by signal detection in an MSD plate reader.
# T1 sequence (P27361 whole entry): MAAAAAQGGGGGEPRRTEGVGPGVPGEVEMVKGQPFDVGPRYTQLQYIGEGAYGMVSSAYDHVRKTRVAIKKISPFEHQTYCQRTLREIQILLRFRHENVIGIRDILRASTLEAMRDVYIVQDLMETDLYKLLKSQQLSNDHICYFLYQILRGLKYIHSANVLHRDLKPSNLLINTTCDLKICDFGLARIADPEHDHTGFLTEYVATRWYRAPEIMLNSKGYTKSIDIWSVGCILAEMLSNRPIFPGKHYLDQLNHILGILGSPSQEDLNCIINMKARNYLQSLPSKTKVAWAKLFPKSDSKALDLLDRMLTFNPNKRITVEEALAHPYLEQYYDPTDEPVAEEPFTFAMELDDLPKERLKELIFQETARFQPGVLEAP
Structure (SMILES),IC50 [1],EC50 [2]
"C/C=C/C(=O)Nc1cc(F)ccc1Nc1nc(N[C@@H]2CCC[C@H](C(N)=O)C2)ncc1C(F)(F)F (racemic) [Compound I-6, Rac-(E)-3-((4-((2-(but-2-enamido)-4-fluorophenyl)amino)-5-(trifluoromethyl)pyrimidin-2-yl)amino)-cis-cyclohexanecarboxamide]",> 1000 nM,> 1000 nM
"CC(=O)N1CCC[C@H](Nc2ncc(C(F)(F)F)c(NC3C4C=CC(C4)C3C(=O)NC#N)n2)C1 (mixture of isomers) [Compound I-25, Rac-3-((2-(((S)-1-acetylpiperidin-3-yl)amino)-5-(trifluoromethyl)pyrimidin-4-yl)-cis-amino)-N-cyanobicyclo[2.2.1]hept-5-ene-2-carboxamide]",> 1000 nM,> 1000 nM
"C=CC(=O)N(C)c1ccccc1Nc1nc(N[C@@H]2CCC[C@H](C(=O)NOC)C2)ncc1Cl (racemic) [Compound I-106, Rac-cis-3-((5-chloro-4-((2-(N-methylacrylamido)phenyl)amino)pyrimidin-2-yl)amino)-N-methoxycyclohexanecarboxamide]",> 1000 nM,> 1000 nM
"C=C(C)C(=O)Nc1cc(F)ccc1Nc1nc(N[C@@H]2CCC[C@H](C(N)=O)C2)ncc1Cl (racemic) [Compound I-114, Rac-cis-3-((5-chloro-4-((4-fluoro-2-methacrylamidophenyl)amino)pyrimidin-2-yl)amino)cyclohexanecarboxamide]",> 1000 nM,> 1000 nM
"C=CC(=O)N[C@@H]1CCCC[C@H]1Nc1nc(Nc2cc(C(=O)NOC)ccc2C)ncc1Cl (racemic) [Compound I-188, Rac-trans-3-((4-((2-acrylamidocyclohexyl)amino)-5-chloropyrimidin-2-yl)amino)-N-methoxy-4-methylbenzamide]",> 1000 nM,> 1000 nM
"C=CC(=O)N[C@@H]1CCCC[C@H]1Nc1nc(Nc2cc(C(N)=O)ccc2C)ncc1Cl (racemic) [Compound I-226, Rac-trans-3-((4-((2-acrylamidocyclohexyl)amino)-5-chloropyrimidin-2-yl)amino)-4-methylbenzamide]",501 to 999 nM,501 to 999 nM
"O=C(CCl)Nc1ccccc1Nc1nc(N[C@H]2CCCN(C(=O)CCl)C2)ncc1C(F)(F)F [Compound I-31, (S)-2-Chloro-N-(2-((2-((1-(2-chloroacetyl)piperidin-3-yl)amino)-5-(trifluoromethyl)pyrimidin-4-yl)amino)phenyl)acetamide]",501 to 999 nM,> 1000 nM
"C=CC(=O)Nc1ccccc1Nc1nc(NC(C)(C)C)ncc1C(F)(F)F [Compound I-82, N-(2-((2-(tert-Butylamino)-5-(trifluoromethyl)pyrimidin-4-yl)amino)phenyl)acrylamide]",501 to 999 nM,> 1000 nM
"C=CC(=O)Nc1ccccc1Nc1nc(Nc2ccc(N3CCN(C(=O)CCCC(=O)NCCCOCCOCCOCCCNC(=O)CCCC[C@@H]4SC[C@@H]5NC(=O)N[C@@H]54)CC3)cc2OC(F)F)ncc1Cl [Compound I-306, 5-(4-(4-((4-((2-acrylamidophenyl)amino)-5-chloropyrimidin-2-yl)amino)-3-(difluoromethoxy)phenyl)piperazin-1-yl)-5-oxo-N-(15-oxo-19-((3aS,4S,6aR)-2-oxohexahydro-1H-thieno[3,4-d]imidazol-4-yl)-4,7,10-trioxa-14-azanonadecyl)pentanamide]",101 to 500 nM,
C=CC(=O)Nc1ccccc1Nc1nc(Nc2ccc(N(CC)C(C)=O)cc2C(F)(F)F)ncc1Cl [Compound I-320],501 to 999 nM,

# Results, then the compound that gave them:
IC50 [1],EC50 [2],Structure (SMILES)
101 to 500 nM,> 1000 nM,"C=CC(=O)Nc1ccccc1Nc1nc(N[C@@H]2CCC[C@H](C(=O)O)C2)ncc1C(F)(F)F (racemic) [Compound I-14, Rac-3-((4-((2-acrylamidophenyl)amino)-5-(trifluoromethyl)pyrimidin-2-yl)amino)-cis-cyclohexanecarboxylic acid]"
101 to 500 nM,501 to 999 nM,"C=CC(=O)N[C@H]1CCCC[C@@H]1Nc1nc(N[C@H]2CCCN(C(=O)CO)C2)ncc1Cl (racemic) [Compound I-141, Rac-N-(2-((5-chloro-2-(((R)-1-(2-hydroxyacetyl)piperidin-3-yl)amino)pyrimidin-4-yl)amino)-trans-cyclohexyl)acrylamide]"
101 to 500 nM,> 1000 nM,"CC(=O)N1CCC[C@H](Nc2ncc(C(F)(F)F)c(Nc3ccccc3NC(=O)CCl)n2)C1 [Compound I-30, (S)—N-(2-((2-((1-Acetylpiperidin-3-yl)amino)-5-(trifluoromethyl)pyrimidin-4-yl)amino)phenyl)-2-chloroacetamide]"
101 to 500 nM,> 1000 nM,"C#CC(=O)N[C@@H]1CCCC[C@H]1Nc1nc(N[C@H]2CCCN(C(=O)CO)C2)ncc1C(F)(F)F [Compound I-34, N-((1R,2R)-2-((2-(((S)-1-(2-Hydroxyacetyl)piperidin-3-yl)amino)-5-(trifluoromethyl)pyrimidin-4-yl)amino)cyclohexyl)propiolamide]"
101 to 500 nM,> 1000 nM,"O=C(CCl)N[C@@H]1CCCC[C@H]1Nc1nc(N[C@H]2CCCN(C(=O)CO)C2)ncc1C(F)(F)F [Compound I-35, 2-Chloro-N-((1R,2R)-2-((2-(((S)-1-(2-hydroxyacetyl)piperidin-3-yl)amino)-5-(trifluoromethyl)pyrimidin-4-yl)amino)cyclohexyl)acetamide]"
101 to 500 nM,501 to 999 nM,"C=CC(=O)Nc1ccc(C)cc1Nc1nc(NC2CCC(=O)CC2)ncc1C(F)(F)F [Compound I-39, N-(4-Methyl-2-((2-((4-oxocyclohexyl)amino)-5-(trifluoromethyl)pyrimidin-4-yl)amino)phenyl)acrylamide]"
101 to 500 nM,> 1000 nM,"C=CC(=O)Nc1ccccc1Nc1nc(Nc2cncc(C(N)=O)c2)ncc1C(F)(F)F [Compound I-63, 5-((4-((2-Acrylamidophenyl)amino)-5-(trifluoromethyl)pyrimidin-2-yl)amino)nicotinamide]"
101 to 500 nM,501 to 999 nM,"C=CC(=O)Nc1ccccc1Nc1nc(Nc2cc(C(=O)NOC)ccc2OC)ncc1C(F)(F)F [Compound I-67, 3-((4-((2-Acrylamidophenyl)amino)-5-(trifluoromethyl)pyrimidin-2-yl)amino)-N,4-dimethoxybenzamide]"
101 to 500 nM,> 1000 nM,"C=CC(=O)Nc1ccccc1Nc1nc(Nc2cc(C(=O)NOCCO)ccc2C#N)ncc1C(F)(F)F [Compound I-75, 3-((4-((2-Acrylamidophenyl)amino)-5-(trifluoromethyl)pyrimidin-2-yl)amino)-4-cyano-N-(2-hydroxyethoxyl)benzamide]"
101 to 500 nM,101 to 500 nM,"C=CC(=O)Nc1ccccc1Nc1nc(Nc2cc(C(N)=O)ccn2)ncc1C(F)(F)F [Compound I-83, 2-((4-((2-Acrylamidophenyl)amino)-5-(trifluoromethyl)pyrimidin-2-yl)amino)isonicotinamide]"
101 to 500 nM,> 1000 nM,"C=C(C)S(=O)(=O)Nc1cc(F)ccc1Nc1nc(Nc2cc(C(N)=O)ccc2C)ncc1C(F)(F)F [Compound I-87, 3-((4-((4-Fluoro-2-(1-methylvinylsulfonamido)phenyl)amino)-5-(trifluoromethyl)pyrimidin-2-yl)amino)-4-methylbenzamide]"
